Results from patent publication US9446039B2, “Aminoheteroaryl compounds as MTH1 inhibitors” (CEMM—FORSCHUNGSZENTRUM FÜR MOLEKULARE MEDIZIN GMBH, priority 2012, dated 2016).

Key:
Assay type in all cases: binding
[1] = molecular target: SW480 colon carcinoma cells lysate proteins (Homo sapiens, UniProt P10412); settings: PreyGene HIST1H1E
[2] = molecular target: SW480 colon carcinoma cells lysate proteins (Homo sapiens, UniProt P55263); settings: PreyGene ADK
[3] = molecular target: T1, SW480 colon carcinoma cells lysate proteins (Homo sapiens, UniProt P78371); settings: PreyGene CCT2; SW480 cells
T1 sequence (P78371 1-535): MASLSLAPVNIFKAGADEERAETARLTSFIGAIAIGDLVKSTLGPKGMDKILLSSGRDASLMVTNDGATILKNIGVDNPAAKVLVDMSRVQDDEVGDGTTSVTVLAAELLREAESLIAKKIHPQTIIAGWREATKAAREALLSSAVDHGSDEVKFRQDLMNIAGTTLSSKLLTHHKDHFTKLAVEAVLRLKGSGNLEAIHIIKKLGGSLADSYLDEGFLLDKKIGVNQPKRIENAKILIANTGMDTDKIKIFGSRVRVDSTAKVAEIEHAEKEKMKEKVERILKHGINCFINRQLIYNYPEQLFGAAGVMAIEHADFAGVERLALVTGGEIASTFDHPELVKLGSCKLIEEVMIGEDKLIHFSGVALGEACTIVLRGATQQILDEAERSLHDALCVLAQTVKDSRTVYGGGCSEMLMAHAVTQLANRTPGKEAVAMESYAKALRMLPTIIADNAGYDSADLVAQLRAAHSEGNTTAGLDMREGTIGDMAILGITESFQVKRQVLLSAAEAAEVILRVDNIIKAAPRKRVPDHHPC

[4] = molecular target: SW480 colon carcinoma cells lysate proteins (Homo sapiens, UniProt P99999); settings: PreyGene CYCS
SW480 colon carcinoma cells lysate proteins (Homo sapiens, UniProt P99999), sequence (P99999 whole entry): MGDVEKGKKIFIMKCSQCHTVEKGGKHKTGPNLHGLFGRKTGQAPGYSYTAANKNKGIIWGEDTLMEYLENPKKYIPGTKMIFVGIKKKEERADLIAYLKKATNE

[5] = molecular target: T2, SW480 colon carcinoma cells lysate proteins (Homo sapiens, UniProt Q8NFT6); settings: PreyGene DBF4B
T2 sequence (Q8NFT6 1-615): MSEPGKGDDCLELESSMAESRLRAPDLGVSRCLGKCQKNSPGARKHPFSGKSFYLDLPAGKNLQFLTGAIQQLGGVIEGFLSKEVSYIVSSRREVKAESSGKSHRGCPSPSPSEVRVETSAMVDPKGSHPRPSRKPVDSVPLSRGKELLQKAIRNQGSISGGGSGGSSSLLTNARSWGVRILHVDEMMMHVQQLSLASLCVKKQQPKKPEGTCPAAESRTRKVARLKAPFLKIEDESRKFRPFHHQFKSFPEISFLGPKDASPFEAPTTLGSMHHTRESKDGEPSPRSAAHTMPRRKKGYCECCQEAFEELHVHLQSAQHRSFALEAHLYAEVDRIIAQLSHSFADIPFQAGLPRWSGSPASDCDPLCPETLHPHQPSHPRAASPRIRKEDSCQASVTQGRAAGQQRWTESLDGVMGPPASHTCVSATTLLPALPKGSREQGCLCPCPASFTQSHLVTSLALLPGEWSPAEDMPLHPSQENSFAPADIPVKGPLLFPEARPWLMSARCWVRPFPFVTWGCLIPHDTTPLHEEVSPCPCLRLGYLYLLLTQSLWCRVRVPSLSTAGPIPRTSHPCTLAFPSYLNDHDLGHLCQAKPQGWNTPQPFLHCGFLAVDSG

[6] = molecular target: T3, SW480 colon carcinoma cells lysate proteins (Homo sapiens, UniProt Q92973); settings: PreyGene TNPO1; SW480 cells
T3 sequence (Q92973 1-898): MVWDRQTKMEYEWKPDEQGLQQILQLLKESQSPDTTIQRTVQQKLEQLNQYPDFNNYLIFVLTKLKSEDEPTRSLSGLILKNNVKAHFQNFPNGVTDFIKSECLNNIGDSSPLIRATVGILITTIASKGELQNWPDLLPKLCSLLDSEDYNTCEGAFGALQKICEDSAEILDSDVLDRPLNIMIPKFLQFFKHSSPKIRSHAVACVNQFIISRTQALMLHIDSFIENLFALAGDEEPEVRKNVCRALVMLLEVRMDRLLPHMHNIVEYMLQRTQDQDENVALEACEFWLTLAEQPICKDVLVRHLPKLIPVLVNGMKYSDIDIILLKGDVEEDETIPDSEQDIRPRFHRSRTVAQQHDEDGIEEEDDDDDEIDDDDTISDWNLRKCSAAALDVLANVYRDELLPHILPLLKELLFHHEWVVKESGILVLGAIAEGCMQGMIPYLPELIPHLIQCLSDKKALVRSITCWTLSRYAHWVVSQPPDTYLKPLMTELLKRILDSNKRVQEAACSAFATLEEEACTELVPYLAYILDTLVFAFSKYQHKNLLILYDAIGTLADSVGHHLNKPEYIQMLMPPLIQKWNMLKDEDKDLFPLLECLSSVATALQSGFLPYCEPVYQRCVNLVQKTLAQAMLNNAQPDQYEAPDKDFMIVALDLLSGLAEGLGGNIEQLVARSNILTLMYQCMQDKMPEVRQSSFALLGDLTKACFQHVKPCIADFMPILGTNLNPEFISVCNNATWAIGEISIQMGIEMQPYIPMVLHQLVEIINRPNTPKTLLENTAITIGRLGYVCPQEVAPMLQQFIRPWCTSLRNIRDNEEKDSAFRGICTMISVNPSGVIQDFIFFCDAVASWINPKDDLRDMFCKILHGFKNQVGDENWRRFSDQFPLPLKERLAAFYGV

[7] = molecular target: SW480 colon carcinoma cells lysate proteins (Homo sapiens, UniProt Q9UHV9); settings: PreyGene PFDN2
SW480 colon carcinoma cells lysate proteins (Homo sapiens, UniProt Q9UHV9), sequence (Q9UHV9 whole entry): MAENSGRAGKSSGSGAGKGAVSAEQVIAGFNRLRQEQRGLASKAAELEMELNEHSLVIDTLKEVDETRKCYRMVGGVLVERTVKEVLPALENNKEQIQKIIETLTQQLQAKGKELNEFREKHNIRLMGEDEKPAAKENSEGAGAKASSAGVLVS

SW480 colon carcinoma cells lysate proteins (Homo sapiens, UniProt P10412), sequence (P10412 whole entry): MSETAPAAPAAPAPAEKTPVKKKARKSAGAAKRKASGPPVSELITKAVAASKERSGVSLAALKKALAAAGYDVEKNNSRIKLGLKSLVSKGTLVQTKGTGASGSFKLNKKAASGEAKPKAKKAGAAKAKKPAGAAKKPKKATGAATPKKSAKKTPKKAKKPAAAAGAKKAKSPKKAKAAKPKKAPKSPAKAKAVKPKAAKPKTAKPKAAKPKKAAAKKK
SW480 colon carcinoma cells lysate proteins (Homo sapiens, UniProt P55263), sequence (P55263 whole entry): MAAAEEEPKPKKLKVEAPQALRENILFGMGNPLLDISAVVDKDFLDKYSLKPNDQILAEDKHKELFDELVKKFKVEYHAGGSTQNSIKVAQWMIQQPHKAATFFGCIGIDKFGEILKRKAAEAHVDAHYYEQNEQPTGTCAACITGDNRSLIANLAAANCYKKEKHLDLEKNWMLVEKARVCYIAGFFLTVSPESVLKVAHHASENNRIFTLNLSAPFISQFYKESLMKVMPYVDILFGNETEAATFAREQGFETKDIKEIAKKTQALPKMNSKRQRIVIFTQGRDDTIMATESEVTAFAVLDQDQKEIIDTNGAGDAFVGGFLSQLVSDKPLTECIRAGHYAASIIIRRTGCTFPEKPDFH

`C[C@H](Oc1cc(-c2cnn(C3CCNCC3)c2)cnc1N)c1c(Cl)ccc(F)c1Cl` [(5)-crizotinib] was tested, and the AvgP [1] was 0.2298, the “SC.Exp. 1-1” value [1] was 0 and the “SC.Exp. 1-2” value [1] was 2. The “SC.Exp. 2-1” value [1] was 0, the “SC.Exp. 2-2” value [1] was 2 and the “Sum (SC.Exp.)” value [1] was 4. For the same compound, the AvgP [2] was 0.4613, the “SC.Exp. 1-1” value [2] was 4 and the “SC.Exp. 1-2” value [2] was 3. The “SC.Exp. 2-1” value [2] was 0, the “SC.Exp. 2-2” value [2] was 0 and the “Sum (SC.Exp.)” value [2] was 7. The AvgP [3] was 0, the “SC.Exp. 1-1” value [3] was 9 and the “SC.Exp. 1-2” value [3] was 11. For the same compound, the “SC.Exp. 2-1” value [3] was 3, the “SC.Exp. 2-2” value [3] was 3 and the “SC.Exp. Sum” value [3] was 26. For the same compound, the AvgP [4] was 0.391, the “SC.Exp. 1-1” value [4] was 2 and the “SC.Exp. 1-2” value [4] was 3. For the same compound, the “SC.Exp. 2-1” value [4] was 0, the “SC.Exp. 2-2” value [4] was 0 and the “Sum (SC.Exp.)” value [4] was 5. The AvgP [5] was 0.2, the “SC.Exp. 1-1” value [5] was 0 and the “SC.Exp. 1-2” value [5] was 0. The “SC.Exp. 2-1” value [5] was 2, the “SC.Exp. 2-2” value [5] was 0 and the “Sum (SC.Exp.)” value [5] was 2. For the same compound, the AvgP [6] was 0, the “SC.Exp. 1-1” value [6] was 9 and the “SC.Exp. 1-2” value [6] was 7. For the same compound, the “SC.Exp. 2-1” value [6] was 6, the “SC.Exp. 2-2” value [6] was 6 and the “SC.Exp. Sum” value [6] was 28. For the same compound, the AvgP [7] was 0.3862, the “SC.Exp. 1-1” value [7] was 2 and the “SC.Exp. 1-2” value [7] was 2. For the same compound, the “SC.Exp. 2-1” value [7] was 0, the “SC.Exp. 2-2” value [7] was 0 and the “Sum (SC.Exp.)” value [7] was 4.
